Consider 2 compounds from patent publication US4251528A, “Phthalazin-4-ylacetic acid derivatives” (Imperial Chemical Industries Limited, priority 1977, dated 1981).

In data set [1] the test system is carageenin induced oedema. Format: in vivo, rats. To be noted: for overt toxicity: rat, in vivo; for inhibition of carageenin induced oedema: rats. The procedure: The compounds of the invention may therefore in addition be useful in the treatment of painful inflammatory joint diseases such as rheumatoid arthritis, osteoarthritis and ankylosing spondylitis. In this connection it is envisaged that they would be administered primarily orally at a daily dose in the range 10-50 mg./kg.

Data set [2] deals with T1, purified aldose reductase isolated from bovine lenses (Bos taurus, UniProt P16116).
T1 construct: purified aldose reductase is isolated in known manner from bovine lenses; from tissue; host or cells: bovine lens
Description: in vitro inhibition of purified aldose reductase (reduction of glucose to sorbitol, spectrophotometric). Format: biochemical. The procedure:
Thus, purified aldose reductase is isolated in known manner from bovine lenses. The percentage inhibition of these enzyme's ability in vitro to reduce aldoses to polyhydric alcohols, and particularly to reduce glucose to sorbitol, caused by a test compound is then determined using standard spectrophotometric methods. […] Thus, by way of illustration, 2-(2-fluoro-4-bromobenzyl)-1,2-dihydro-1-oxophthalazin-4-ylacetic acid has a Ki of 2.0×10^-8 M.

The next data set concerns the target T2, aldose reductase (Rattus norvegicus, UniProt P07943).
T2 construct: the eye lenses and sciatic nerves are removed; from tissue; host or cells: rat sciatic nerve (and eye lens), enzyme acting in the living animal
Kind of data set: streptozotocin diabetic rat test, residual sorbitol levels in tissues. Format: in vivo. To be noted: oral dosing at 10 mg./kg. for 5 days. As for the experimental part:
Thus, rats are made diabetic by dosing with streptozotocin and are then dosed daily with the test compound for 5 days. The animals are then killed and the eye lenses and sciatic nerves are removed. After a standard work-up procedure the residual sorbitol levels in each tissue are determined by gas liquid chromatography after conversion to the poly trimethylsilyl derivatives. Inhibition of aldose reductase in vivo is then assessed by comparing the residual sorbitol levels in tissues from the dosed diabetic group of rats with those of an undosed group of diabetic rats and an undosed, normal group of rats.
Alternatively, a modified test may be used in which the streptozotocin induced diabetic rats are dosed daily with test compound for two days. After 2-4 hours from the final dose the animals are killed and the sciatic nerves are removed and assessed for residual sorbitol levels as described above.
Active compounds in either of these tests reduce residual sorbitol levels to levels which are similar to those of normal, undosed rats. […] No overt toxic or other undesirable effects were detected with compounds of formula I at 100 mg./kg. in the above tests.

For the compound `O=C(O)Cc1nn(Cc2ccc(Br)c(Cl)c2)c(=O)c2ccccc12` [2-(3-chloro-4-bromobenzyl)-1,2-dihydro-1-oxophthalazin-4-ylacetic acid], in data set [1], the overt toxicity entry is listed as “without any sign of overt toxicity” and the “inhibition of carageenin induced oedema” value is “significant inhibition”.

`O=C(O)Cc1nn(Cc2ccc(Br)cc2F)c(=O)c2ccccc12` [2-(2-fluoro-4-bromobenzyl)-1,2-dihydro-1-oxophthalazin-4-ylacetic acid] had an inhibition constant (Ki) in data set [2] of 20 nM. Besides, on aldose reductase, the “residual sorbitol level in the sciatic nerve, relative to control undosed diabetic rats” value is “approximately 60%”. In data set [1], the overt toxicity result was “without any sign of overt toxicity” and the “inhibition of carageenin induced oedema” value is listed as “significant inhibition”.

By Ki is commonly meant a dissociation constant, usually derived from enzyme kinetics or from competition with a known ligand. High values mean lower affinity, low ones higher affinity.
